Laboratory results: ChEMBL document CHEMBL5033989, “Nor-abietane Diterpenoids from Perovskia abrotanoides Roots with Anti-inflammatory Potential” (J Nat Prod, 2021)
Activity calls are given as the source filed them. The calls are words filed in the database; no cut-off is given here.

Key:
J774.A1 [1] = test: Cytotoxicity against mouse J774.A1 cells assessed as antiproliferative activity at 12.5 to 50 uM incubated for 24 hrs by MTT assay relative to control; format: cell-based; conditions: j774.a1, 24 h, dose 12.5-50 µM
J774.A1 [2] = test: Inhibition of LPS-induced NO release in mouse J774.A1 cells at 12.5 to 50 uM when treated with compound and LPS simultaneously measured after 24 hrs by Griess reagent based assay relative to control; format: functional, cell-based; conditions: dose 12.5-50 µM
J774.A1 [3] = test: Inhibition of iNOS expression in LPS-stimulated mouse J774.A1 cells at 12.5 to 50 uM measured after […] by flow cytometry analysis relative to control; format: functional, cell-based; conditions: dose 12.5-50 µM
J774.A1 [4] = test: Inhibition of LPS-induced NO release in mouse J774.A1 cells at 5 uM when treated with compound and LPS simultaneously measured after 24 hrs by Griess reagent based assay relative to control; format: functional; parameters: scale not given: the % may be the effect or the level left
J774.A1 [5] = test: Cytotoxicity against mouse J774.A1 cells assessed as antiproliferative activity at 200 uM incubated for 24 hrs by MTT assay relative to control; format: cell-based; conditions: j774.a1, 24 h

CC1(C)CCC[C@@]23CO[C@@H](C[C@@H]12)c1cc(O)c(O)cc13 was tested, and the Activity (J774.A1 [1]) was “Toxic”.
CC(CO)C1=C(O)C(=O)c2c(ccc3c2[C@H](O)CCC3(C)C)C1=O (stereo not given in full) was tested, and the Activity (J774.A1 [1]) was “Non-Toxic”, the Activity (J774.A1 [2]) was “Active” and the Activity (J774.A1 [3]) was “Active”.
With Cc1cc2c(cc1O)[C@@]13CCC(=O)C(C)(C)[C@@H]1C[C@@H]2OC3 the Activity (J774.A1 [1]) was “Non-Toxic”, the Activity (J774.A1 [2]) was “Active” and the Activity (J774.A1 [3]) was “Active”.
In the case of Cc1cc2c(cc1O)C[C@]1(O)CCCC(C)(C)[C@@H]1CC2, the Activity (J774.A1 [1]) is reported as “Non-Toxic”, the Activity (J774.A1 [2]) is reported as “Active” and the Activity (J774.A1 [3]) is reported as “Active”.
COC(=O)[C@@H](N)CCCNC(=N)N[N+](=O)[O-].Cl showed an Activity (J774.A1 [4]) of 57%.
For Cc1cc2c(cc1O)[C@@]13CCCC(C)(C)[C@@H]1[C@H](OC3)[C@@H]2O, the Activity (J774.A1 [1]) was “Toxic”.
For CC1=C[C@@]2(O)CC[C@H]3C(C)(C)CCC[C@]3(CO)C2=CC1=O, the Activity (J774.A1 [1]) was “Toxic”.
Sc1ncnc2nc[nH]c12 [MERCAPTOPURINE ANHYDROUS] showed an Activity (J774.A1 [5]) of 27.86%.
For CC(C)c1cc2ccc3c(c2c(O)c1O)C=CC(=O)C3(C)C, the Activity (J774.A1 [1]) was “Non-Toxic”, the Activity (J774.A1 [2]) was “Active” and the Activity (J774.A1 [3]) was “Active”.
CC1=C[C@]2(O)CC[C@H]3C(C)(C)CCC[C@@]3(O)C2=CC1=O was tested, and the Activity (J774.A1 [1]) was “Non-Toxic”, the Activity (J774.A1 [2]) was “Active” and the Activity (J774.A1 [3]) was “Active”.
